Assay [1] relates to EhELO1. Description: Elongation efficiency on fatty acid substrates by EhELO1 expressed in Saccharomyces cerevisiae (in vivo activity assay). It counts as cell-based, Eranthis hyemalis. As to conditions: for Elongation efficiency (%): yeast INVSc1 transformant with EhELO1/pHVX2, 0.25 mM free fatty acid substrate with tergitol, 20° C. for 2 days, calculated from peak area of FAMEs, means of four replicates with standard deviation; for Substrate preference of EhELO1 (in words): yeast transformant expressing EhELO1, comparison among supplied substrates. As for the experimental part:
To define the diverse activity of the discovered elongase (EhELO1) from winter aconite, a variety of possible common fatty acids and unusual fatty acids that differ in the number and position of double bonds as well as in the chain length was exogenously supplied to the yeast transformant expressing the elongase EhELO1 for in vivo activity assays. The conversion of substrates to products was measured and used for the comparison of elongation efficiencies among fatty acid substrates.
The EhELO1 coding sequence was released from plasmid, EhELO1/pYES2.1 and sub-cloned into another yeast expression vector pHVX2 under the control of phosphoglycerate kinase 1 constitutive promoter, giving a plasmid EhELO1/pHVX2. The recombinant plasmid was transformed into Saccharomyces cerevisiae INVSc1. The yeast transformants with either EhELO1 or empty vector pHVX2 were grown at 30° C. for 1 day. The overnight cultures were diluted to an OD600 of 0.1 in the same medium supplemented with or without 0.25 mM of various free fatty acids in the presence of tergitol. After incubation at 20° C. for 2 days, yeast cells were harvested and washed once with tergitol and once with water. Total fatty acids in yeast transformants were converted to FAMES by an acid transmethylation process and analyzed by gas chromatography.

For assay [2], the system named is CtELO6. Description: Elongation of fatty acid by elongase CtELO6 studied in yeast, Saccharomyces cerevisiae. It is filed as cell-based, Conidiobolus thromboides. An excerpt: Accordingly, it is expected that the production of 20:2:11,14 by CtELO6 in plants may provide increased substrate for EhELO1, providing enhanced production of DDA in plants expressing both CtELO6 and EhELO1.

The text below walks through data of patent publication US10920238B2, “Winter aconite fatty acid elongase and uses thereof in the production of fatty acids” (National Research Council of Canada, priority 2016, dated 2021).

Consider `CCCCCCCC/C=C\CCCCCCCC(=O)O` [18:1-9], for which, in assay [1], the “Elongation efficiency (%)” value is 3.3 ± 0.07%.

For the molecule `CCCCCC/C=C\CCCCCCCCCC(=O)O` [18:1-11], in assay [1], the “Elongation efficiency (%)” value is recorded as 49.4 ± 1.79% and the “Substrate preference of EhELO1 (in words)” value is “highly active”.

Regarding `CCCCC/C=C\C/C=C\CCCCCCCC(=O)O` [18:2-9, 12, linoleic acid], the elongation efficiency result in assay [2] was “more than 20%”. Further, in assay [1], the “Elongation efficiency (%)” value is recorded as 44.6 ± 3.26%.

`CCCCC/C=C\C/C=C\C/C=C\CCCCC(=O)O` [18:3-6,9, 12, γ-linolenic acid]: in assay [1], the “Elongation efficiency (%)” value is reported as 28.3 ± 1.95%.

Consider `CC/C=C\C/C=C\C/C=C\CCCCCCCC(=O)O` [18:3-9, 12, 15, linolenic acid], for which the “Elongation efficiency (%)” value in assay [1] is 54.7 ± 0.83%.

Consider `CC/C=C\C/C=C\C/C=C\C/C=C\CCCCC(=O)O` [18:4-6,9, 12, 15], for which the “Elongation efficiency (%)” value in assay [1] is 25.0 ± 0.37%.

As for `CCCCCCCCC=CCCCCCCCCCC(=O)O` [20:1-11], in assay [1], the “Elongation efficiency (%)” value was 12.6 ± 0.23%.

As for `CCCCC/C=C\C/C=C\CCCCCCCCCC(=O)O` [20:2-11, 14, eicosadienoic acid], the “Elongation efficiency (%)” value in assay [1] is 48.5 ± 2.12%.

For `CCCCC/C=C\C/C=C\C/C=C\CCCCCCC(=O)O` [20:3-8, 11, 14], the “Elongation efficiency (%)” value in assay [1] is 46.4 ± 1.44%.

Consider `CC/C=C\C/C=C\C/C=C\CCCCCCCCCC(=O)O` [20:3-11, 14, 17], for which, in assay [1], the “Elongation efficiency (%)” value is 61.8 ± 0.35% and the “Substrate preference of EhELO1 (in words)” value was “most preferred”.

In the case of `CCCCC/C=C\C/C=C\C/C=C\C/C=C\CCCC(=O)O` [20:4-5,8, 11, 14, arachidonic acid], the “Elongation efficiency (%)” value in assay [1] is recorded as 36.2 ± 0.92%.

Regarding `CC/C=C\C/C=C\C/C=C\C/C=C\CCCCCCC(=O)O` [20:4-8, 11, 14, 17], in assay [1], the “Elongation efficiency (%)” value was 50.3 ± 0.53%.

As for `CC/C=C\C/C=C\C/C=C\C/C=C\C/C=C\CCCC(=O)O` [20:5-5,8, 11, 14, 17, eicosapentaenoic acid], the “Elongation efficiency (%)” value in assay [1] is given as 39.8 ± 0.43%.

Take `CCCCCCCC/C=C\CCCCCCCCCCCC(=O)O` [22:1-13]: the “Elongation efficiency (%)” value in assay [1] is listed as 0.0 ± 0.0%.

In the case of `CCCCC/C=C\C/C=C\CCCCCCCCCCCC(=O)O` [22:2-13, 16, docosadienoic acid], the “Elongation efficiency (%)” value in assay [1] is reported as 3.4 ± 0.17%.

Consider `CC/C=C\C/C=C\C/C=C\CCCCCCCCCCCC(=O)O` [22:3-13, 16, 19, docosatrienoic acid], for which the “Elongation efficiency (%)” value in assay [1] is on record as 9.7 ± 0.13%.

`CCCCC/C=C\C/C=C\C/C=C\C/C=C\CCCCCC(=O)O` [22:4-7, 10, 13, 16]: in assay [1], the “Elongation efficiency (%)” value was 20.5 ± 0.37%.

Consider `CCC=CCC=CCC=CCC=CCCCCCCCCC(=O)O` [22:4-10, 13, 16, 19], for which the “Elongation efficiency (%)” value in assay [1] is listed as 32.7 ± 0.49%.

As for `CC/C=C\C/C=C\C/C=C\C/C=C\C/C=C\CCCCCC(=O)O` [22:5-7, 10, 13, 16, 19], the “Elongation efficiency (%)” value in assay [1] is 31.9 ± 0.19%.

In the case of `CC/C=C\C/C=C\C/C=C\C/C=C\C/C=C\C/C=C\CCC(=O)O` [22:6-4,7, 10, 13, 16, 19, docosahexaenoic acid], the “Elongation efficiency (%)” value in assay [1] is listed as 10.8 ± 0.52%.
